The supplement of paper PMC10307832

What was measured:
Assay in all cases: relative viability (nuclei count vs DMSO), 5 days (fraction); higher = more cells survive
CUDC-101 + Tozasertib = compound: C#Cc1cccc(Nc2ncnc3cc(OC)c(OCCCCCCC(=O)NO)cc23)c1 [CUDC-101] + Cc1cc(Nc2cc(N3CCN(C)CC3)nc(Sc3ccc(NC(=O)C4CC4)cc3)n2)n[nH]1 [Tozasertib] (partner 0.1 µM)
In short: (§1)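 One day after seeding in 1536-well plates, lung cancer cell lines were dosed by pin tool. Dosing was either single-drug or a fixed anchor-drug dose plus five library-drug doses (not always all listed) in √10 steps. After 5 days, nuclei were stained in one fix-and-stain step and counted on 4× images, and relative viability is the nuclei count of treated wells over that of vehicle wells, given as the median of duplicate plates.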

[1] = compound: C1=CC=C2C(=C1)N=C(S2)C(C#N)C3=NC(=NC=C3)NCCC4=CN=CC=C4 + COc1cc2c(Oc3ccc(NC(=O)C4(C(=O)Nc5ccc(F)cc5)CC4)cc3F)ccnc2cc1OCCCN1CCOCC1 [Foretinib] (partner 0.25 µM)
In short: as §1

CUDC-101 + Palbociclib = compound: C#Cc1cccc(Nc2ncnc3cc(OC)c(OCCCCCCC(=O)NO)cc23)c1 [CUDC-101] + CC(=O)c1c(C)c2cnc(Nc3ccc(N4CCNCC4)cn3)nc2n(C2CCCC2)c1=O [Palbociclib] (partner 0.5 µM)
In short: as §1

[2] = compound: C1=CC=C2C(=C1)N=C(S2)C(C#N)C3=NC(=NC=C3)NCCC4=CN=CC=C4 + O=C(CCCCCCC(=O)Nc1ccccc1)NO [Vorinostat] (partner 1 µM)
In short: as §1

Cell Line	relative viability (CUDC-101 + Tozasertib; first compound 0.01 µM)	relative viability (CUDC-101 + Tozasertib; first compound 0.03162 µM)	relative viability (CUDC-101 + Tozasertib; first compound 0.1 µM)	relative viability (CUDC-101 + Tozasertib; first compound 0.3162 µM)	relative viability (CUDC-101 + Tozasertib; first compound 1 µM)	relative viability ([1]; first compound 0.005 µM)	relative viability ([1]; first compound 0.01581 µM)	relative viability ([1]; first compound 0.05 µM)	relative viability ([1]; first compound 0.1581 µM)	relative viability ([1]; first compound 0.5 µM)	relative viability (CUDC-101 + Palbociclib; first compound 0.01 µM)	relative viability (CUDC-101 + Palbociclib; first compound 0.03162 µM)	relative viability (CUDC-101 + Palbociclib; first compound 0.1 µM)	relative viability (CUDC-101 + Palbociclib; first compound 0.3162 µM)	relative viability (CUDC-101 + Palbociclib; first compound 1 µM)	relative viability ([2]; first compound 0.005 µM)	relative viability ([2]; first compound 0.01581 µM)	relative viability ([2]; first compound 0.05 µM)	relative viability ([2]; first compound 0.1581 µM)	relative viability ([2]; first compound 0.5 µM)
HCC-366	0.127	0.111	0.0975	0.111	0.0886	0.832	0.839	0.872	0.915	0.923	0.411	0.442	0.389	0.39	0.296	0.336	0.361	0.385	0.519	0.365
NCI-H1437	0.41	0.332	0.41	0.429	0.361	1.26	1.3	1.27	1.32	1.23	0.287	0.327	0.302	0.342	0.302	0.896	0.871	0.813	0.824	0.755
EPLC-272H	0.216	0.284	0.306	0.231	0.121	0.588	0.586	0.673	1	0.585	0.318	0.314	0.279	0.282	0.261		0.519	0.451	0.395	0.178
NCI-H1703						0.391	0.37	0.381	0.318	0.336										
HCC-15	0.383	0.368	0.314	0.322	0.238	0.853	1.07	0.984	1.2	1.01	0.737	0.74	0.793	0.818	0.648	0.959	0.971	0.816	0.851	0.775
NCI-H2347	0.561	0.614	0.608	0.583	0.499	1.1	0.821		0.662	1.17	0.469	0.431	0.429	0.435	0.418	0.578	0.524	0.551	0.72	0.558
COR-L 105	0.266	0.353	0.342	0.27	0.311	0.802	1.12	0.963	1.26	0.878	0.383	0.404	0.408	0.427	0.294	0.648	0.908	0.884	0.893	0.876
NCI-H1650	0.398	0.318	0.305	0.383	0.267	1.02	1.38	0.919	1.55	0.787	0.37	0.23	0.294	0.308	0.19	0.472	0.597	0.535	0.676	0.439
NCI-H838	0.265	0.266	0.329	0.265	0.264	0.981	1.04	0.99	0.928	0.926	0.213	0.221	0.233	0.26	0.214	0.751	0.747	0.661	0.707	0.681
NCI-H2009	0.8	0.695	0.778	0.801	0.639	1.17	1.2	1.18	1.32	1.23	0.219	0.191	0.263	0.258	0.276	0.727	0.677	0.729	0.735	0.738
SK-MES-1	0.976	0.945	0.942	0.809	0.502	0.836	1.07	0.863	1.11	0.993	0.301	0.33	0.341	0.305	0.316	1.01	1.06	0.938	1.32	0.935
H3255	0.649	0.591		0.549	0.135	0.988	0.879	0.848	1.09	0.963	0.335	0.351	0.324	0.292	0.238	0.792	0.729	0.745	0.988	0.84
HCC-78	0.401	0.405	0.36	0.316	0.184	0.473	0.526	0.523	0.559	0.504	0.44	0.483	0.458	0.427	0.374	0.485	0.391	0.509	0.524	0.42
EMC-BAC-2	0.312	0.208	0.251	0.209	0.199	0.946	1.01	0.994	1.03	1.03	0.546	0.514	0.502	0.502	0.375	0.491	0.299	0.48	0.476	0.411
Calu-6						0.875	0.873	0.817	0.884	0.822										
NCI-H1563						0.85	0.922	1.03	0.952	0.914										
EBC-1						0.123	0.103	0.0991	0.112	0.0984										
NCI-H596	0.632	0.716	0.871	0.917	0.819	0.656	0.955	0.741	0.853	0.971						0.463	0.446	0.716	0.654	0.676
A549							1.03	0.971	1.05	0.728										
NCI-H1648	0.64		0.636	0.362	0.221						0.243	0.273	0.256	0.27	0.211		0.448		0.622	0.417
HCC-44	0.795	0.899	0.999	0.917	0.7						1.02	0.943	0.951	0.986	1.05	1.19	1.14	1.09	1.15	1.02
